Paper PMC9822400, “The Lipophilic Purine Nucleoside—Tdp1 Inhibitor—Enhances DNA Damage Induced by Topotecan In Vitro and Potentiates the Antitumor Effect of Topotecan In Vivo” (Molecules, 2022)
Entries after “also recorded” stand apart in the source; their conditions may differ.

Key:
HeLa cells [1] = assay: Effect of compounds on topotecan cytotoxicity (EZ4U test); assay type: cell-based, human; conditions: compound 10 μM in combination with Tpc
Excerpt: (§1) Tdp1 inhibitors are intended to be used in therapeutic cocktails to sensitize tumors to the action of anticancer Top1 poisons. […] To assess the toxicity of the compounds, their effect on the survival of the HeLa cell line (human cervical cancer) was studied using the colorimetric test of metabolic activity of cells EZ4U, which reflects the survival of cells in the presence of the studied compounds. The EZ4U assay is based on the ability of living cells to reduce the colorless tetrazolium salt XTT [sodium 3,3′-{1-(phenylamino)-carbonyl-3,4-tetrazolium) -bis(4-methoxy-6-nitro)-benzene sulfonic acid hydrate] to an orange water-soluble formazan product. This method was used to investigate the intrinsic cytotoxicity of promising inhibitors discovered in the course of this work, as well as the toxicity of their combination with Tpc.
As already mentioned, we expected to increase the efficacy and/or reduce the dosage of Tpc with Tdp1 inhibitors. To do this, we studied the effect of nucleoside derivatives on Tpc cytotoxicity. […] We attribute this to the probable presence of protein targets other than Tdp1 in the cell.
(§2) Cytotoxicity of the compounds was examined on human cell lines HeLa using an EZ4U colorimetric test (Biomedica, Vienna, Austria). The HeLa cell line was obtained from the Russian Cell Culture Collection (RCCC) Institute of Cytology RAS, St. Petersburg, Russia. The cells were grown in DMEM/F12 medium (Gibco, Thermo Fisher Scientific, Waltham, MA, USA), with 1x GlutaMAX (Gibco, Thermo Fisher Scientific, Waltham, MA, USA), 50 IU/mL penicillin, 50 μg/mL streptomycin (MP Biomedicals), and in the presence of 10% fetal bovine serum (Biolot, Saint-Petersburg, Russia) in a 5% CO2 atmosphere. Since lipophilic nucleosides are soluble in DMSO, cells were grown in the presence of 1% DMSO in the control wells. After the formation of a 30–50% monolayer, the tested compounds were added to the medium, and the cell culture was monitored for 3 days. The values were normalized to their own control in each case. At least three independent experiments were carried out. The 50% cytotoxic concentration (CC50) was defined as the compound concentration that reduced the cell viability by 50% when compared to the untreated controls. The CC50 value was determined using OriginPro 8.6.0 software (OriginLab, Northampton, MA, USA). The measurements were carried out in three independent experiments.

human recombinant PARP2 = biological target: T1, human recombinant PARP2 (Homo sapiens, UniProt Q9UGN5); assay: PARP2 activity by inclusion of α-[32P]-NAD+ in poly(ADP-ribose); assay type: biochemical; conditions: in the presence of 1 mM compound; read-out: Residual activity of PARP2
T1 construct: made in house
Protocol: (§3) Since it has previously been shown that nucleoside derivatives can inhibit enzymes of the PARP family, we also checked whether the studied compounds were able to inhibit the enzymes PARP1 and PARP2. […] Thus, when using our compounds, one cannot expect side effects from PARP1/2.
(§4) Purified human recombinant PARP1/2 [65] and [^32P] NAD^+ [27] were prepared as described earlier. The activity of PARP1/2 was evaluated by the rate of incorporation of the radioactive label into the acid-insoluble reaction product—PAR as described previously.

[2] = Cell culture cytotoxicity assay (EZ4U colorimetric test); assay type: cell-based; conditions: human, HeLa cells
Excerpt: as §1, §2

[3] = biological target: T2, purified recombinant human Tdp1 (Homo sapiens, UniProt Q9NUW8); assay: Real-time detection of Tdp1 activity (removal of BHQ1 from a 5′-FAM 16-nt oligonucleotide, fluorescence); assay type: biochemical; conditions: for IC50: 1.5 nM Tdp1, 50 nM oligonucleotide, 25 °C, three independent experiments
T2 construct: made in house
Protocol: In this work, four natural nucleosides (1-4) and […] aromatic lipophilic derivatives of purine nucleosides (5a-f, 6a-d) were tested for Tdp1 activity. The used test system was based on the enzyme’s ability to remove Black Hole Quencher 1 (BHQ1) from the 3′ end of a 5′ FAM 16-nt oligonucleotide. As a result, an increase in FAM fluorescence was detected and the obtained kinetic curves were used to calculate the IC50 parameter (the concentration of the inhibitor at which the enzyme activity is reduced by half). We have found potent Tdp1 inhibitors with IC50 in the range from 0.3 to 7 μM (Table 1).
Purified human recombinant Tdp1 was prepared as described earlier. Real-time detection of Tdp1 activity was reported in our previous work. The approach consists of a fluorescence intensity measurement of the reaction of quencher removal from the fluorophore-quencher coupled DNA oligonucleotide catalyzed by Tdp1 in the presence of the inhibitor (the control samples contained 1% DMSO). The biosensor was single-stranded oligonucleotide (5′-[FAM] AAC GTC AGGGTC TTC C [BHQ]-3′) containing fluorophore at the 5′ end (5,6-FAM) and a Black Hole Quencher 1 (BHQ) at the 3′ end, and was synthesized in the Laboratory of nucleic acid chemistry at the Institute of Chemical Biology and Fundamental Medicine SB RAS, Novosibirsk, Russia. The reactions were incubated at a constant temperature 25 °C in a POLARstar OPTIMA fluorimeter, BMG LABTECH, GmbH, to measure fluorescence every 55 s (Ex485/Em520 nm) during the linear phase (here, the data are from 0 to 8 min). […] The IC50 values were determined using a six-point concentration response curve in three independent experiments and calculated using MARS Data Analysis 2.0 (BMG LABTECH).

human recombinant PARP1 = biological target: T3, human recombinant PARP1 (Homo sapiens, UniProt P09874); assay: PARP1 activity by inclusion of α-[32P]-NAD+ in poly(ADP-ribose); assay type: biochemical; conditions: in the presence of 1 mM compound; read-out: Residual activity of PARP1
T3 construct: made in house
Protocol: as §3, §4

HeLa cells [4] = assay: Alkaline Comet assay, accumulation of DNA damage; assay type: cell-based; conditions: for DNA in tail: Topotecan 10 μM alone (0 μM compound), 1 h
Excerpt: We studied the effect of Tdp1 inhibitors 5f and 6d on the accumulation of DNA damage by single-cell gel electrophoresis (Comet assay). […] This method has proven to be a simple, fast, and a quite sensitive way to detect DNA damage at the level of a single cell, allowing one to analyze almost any eukaryotic cell culture. Several analysis options allow one to visualize various types of DNA damage: single- and double-stranded breaks and alkaline-labile sites. This allows this method to be widely used in fundamental studies of DNA damage and repair and in testing the genotoxicity of new chemical and pharmaceutical drugs in vitro and in vivo [51, 52]. To study potential drugs, the alkaline version of the method (pH > 13) proposed by Singh and co-authors is widely used. This method allows the detection of all types of DNA damage with high sensitivity. In cells with a large amount of DNA damage, the structural organization and integrity of DNA are disrupted, which leads to its relaxation and/or fragmentation. As a result, cellular DNA in an electric field gives the observed objects the appearance of a “comet”.
Before studying the effect of Tdp1 inhibitors on the accumulation of DNA damage, it was necessary to find out how long the generation of DNA damage by Tpc and their repair take place in HeLa cells. To do this, cell culture was treated with Tpc at 1, 10, and 100 μM concentrations for 30 min, 1, 2, and 3 h and the level of damage to individual cells was monitored by Comet assay. It was shown that Tpc caused the greatest amount of damage after 30 minutes’ treatment. After this time, the repair systems began to correct these lesions and as a result, after 3 h most of them have been eliminated (Figure S9). […] The level of DNA damage at this point was enough to be detected, the data were reproducible, and can be evaluated by the Comet assay. The effect could be enhanced by the tested compounds without leading to cell death. It was important for us to see this enhancement in the presence of our compounds.
HeLa cell culture was grown in a 24-well plate to a concentration of 0.05 million/mL, then treated with the tested compounds and incubated for 1 h. To obtain a cell suspension, the cells were treated with trypsin (30 µL in each well for 5 min at 37 °C), and then 200 µL of PBS + 10% FBS were added to each well.
The resulting cell suspension (50 µL) was mixed with 250 µL of a 1% solution of molten low melting agarose (CertifiedTM LMAgarose; BIO-RAD), 250 µL of this mixture was transferred to the slides pre-coated with a 1% normal melting agarose (Agarose; Helicon), and left for several minutes at 4 °C to solidify. The resulting slides were incubated in a lysing solution (2.5 M NaCl, 100 mM EDTA, 10 mM Tris base, 1% Triton, 5% DMSO, pH 10.0) for an hour at 4 °C. Then the slides were immersed in an electrophoretic buffer (300 mM NaOH, 1 mM EDTA, pH > 13) for 45 min at 4 °C. Electrophoresis was performed at 20 V, 450 mA for 10 min while cooling on ice. After that, the slides were immersed 2 times for 5 min in 0.4 M Tris-HCl pH 7.5 solution for neutralization, washed twice with cold water, and stained with SYBR Green I (excitation maximum at 497 nm, emission maximum at 520 nm; Thermo Fisher Scientific KK).
The images were obtained using a CELENA © S digital microscope (Logos Biosystems, Inc., Annandale, VA, USA) and analyzed with Comet analysis software (Trevigen, Inc., Gaithersburg, MD, USA. In all experiments, 2 slides were evaluated for each sample by counting at least 200 cells on the glass. As a parameter for measuring the level of DNA damage, the median value of the percentage of DNA in the tail was chosen (% Tail DNA = 100 × the intensity of DNA fluorescence in the tail of the comet/the intensity of fluorescence of the total DNA of the comet).

T1 sequence (Q9UGN5 whole entry): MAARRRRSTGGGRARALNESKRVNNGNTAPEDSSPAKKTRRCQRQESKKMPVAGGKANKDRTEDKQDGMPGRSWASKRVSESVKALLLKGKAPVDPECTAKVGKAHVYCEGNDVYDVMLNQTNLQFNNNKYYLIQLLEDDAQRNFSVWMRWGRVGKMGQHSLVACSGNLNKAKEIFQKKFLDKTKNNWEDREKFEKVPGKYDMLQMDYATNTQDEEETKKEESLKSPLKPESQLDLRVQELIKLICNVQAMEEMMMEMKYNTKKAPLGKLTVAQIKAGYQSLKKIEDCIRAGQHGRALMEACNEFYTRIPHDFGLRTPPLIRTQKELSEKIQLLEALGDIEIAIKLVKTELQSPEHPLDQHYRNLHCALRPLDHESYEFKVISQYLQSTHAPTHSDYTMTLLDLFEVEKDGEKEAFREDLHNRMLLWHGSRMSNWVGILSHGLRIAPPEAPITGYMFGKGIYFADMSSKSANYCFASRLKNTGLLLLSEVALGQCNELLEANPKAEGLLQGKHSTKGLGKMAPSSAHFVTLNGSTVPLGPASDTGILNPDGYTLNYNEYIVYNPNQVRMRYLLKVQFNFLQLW
T2 sequence (Q9NUW8 whole entry): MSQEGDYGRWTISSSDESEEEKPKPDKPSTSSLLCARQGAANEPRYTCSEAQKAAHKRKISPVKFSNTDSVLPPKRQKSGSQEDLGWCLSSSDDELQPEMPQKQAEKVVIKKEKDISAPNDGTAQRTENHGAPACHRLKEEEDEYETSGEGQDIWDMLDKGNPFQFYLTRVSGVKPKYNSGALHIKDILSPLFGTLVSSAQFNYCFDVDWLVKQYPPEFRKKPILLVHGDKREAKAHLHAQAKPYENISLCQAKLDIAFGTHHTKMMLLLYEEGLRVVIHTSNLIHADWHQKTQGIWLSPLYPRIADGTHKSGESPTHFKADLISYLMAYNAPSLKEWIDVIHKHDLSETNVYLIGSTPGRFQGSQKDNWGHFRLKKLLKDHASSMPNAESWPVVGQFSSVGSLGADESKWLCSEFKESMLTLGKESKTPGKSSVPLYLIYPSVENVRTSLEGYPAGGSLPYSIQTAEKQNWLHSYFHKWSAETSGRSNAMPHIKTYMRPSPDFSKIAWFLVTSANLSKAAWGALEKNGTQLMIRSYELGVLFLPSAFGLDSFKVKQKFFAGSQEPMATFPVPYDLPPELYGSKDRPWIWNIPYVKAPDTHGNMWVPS
T3 sequence (P09874 whole entry): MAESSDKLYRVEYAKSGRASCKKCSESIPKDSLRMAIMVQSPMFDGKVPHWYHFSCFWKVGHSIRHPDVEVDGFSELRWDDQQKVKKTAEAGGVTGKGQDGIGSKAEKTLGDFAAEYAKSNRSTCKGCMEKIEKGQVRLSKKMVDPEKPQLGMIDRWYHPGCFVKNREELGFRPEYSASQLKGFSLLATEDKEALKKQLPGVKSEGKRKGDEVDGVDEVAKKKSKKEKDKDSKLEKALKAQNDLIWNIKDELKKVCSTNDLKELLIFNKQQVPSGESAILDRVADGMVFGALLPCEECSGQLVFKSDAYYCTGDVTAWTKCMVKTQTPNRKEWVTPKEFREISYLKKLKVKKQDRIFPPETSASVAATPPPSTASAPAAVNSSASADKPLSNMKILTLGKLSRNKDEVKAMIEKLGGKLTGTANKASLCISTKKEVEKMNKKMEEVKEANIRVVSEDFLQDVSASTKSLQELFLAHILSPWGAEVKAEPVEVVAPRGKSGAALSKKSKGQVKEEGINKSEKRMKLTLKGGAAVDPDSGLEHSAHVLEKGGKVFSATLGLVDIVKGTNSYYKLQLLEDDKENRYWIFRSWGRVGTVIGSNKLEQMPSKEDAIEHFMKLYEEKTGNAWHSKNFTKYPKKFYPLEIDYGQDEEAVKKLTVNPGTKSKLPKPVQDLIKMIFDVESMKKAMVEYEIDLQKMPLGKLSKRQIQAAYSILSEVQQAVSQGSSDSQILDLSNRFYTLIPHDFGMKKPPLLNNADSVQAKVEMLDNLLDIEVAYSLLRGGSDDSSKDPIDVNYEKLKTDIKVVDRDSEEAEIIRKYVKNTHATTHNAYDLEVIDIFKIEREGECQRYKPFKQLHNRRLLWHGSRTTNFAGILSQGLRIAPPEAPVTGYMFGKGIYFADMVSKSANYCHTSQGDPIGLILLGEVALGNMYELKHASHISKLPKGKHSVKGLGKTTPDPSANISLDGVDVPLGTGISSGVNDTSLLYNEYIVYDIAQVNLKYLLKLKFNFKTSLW

SMILES	Enhancement of Tpc Cytotoxicity by 10 μM Compounds (HeLa cells [1])	remaining activity at 1000 µM (human recombinant PARP2)	CC50 at 3 days [2]	Tdp1 inhibition, in words [3]	IC50 [3]	remaining activity at 1000 µM (human recombinant PARP1)	DNA in tail (HeLa cells [4]; series of compound 5f)	DNA in tail (HeLa cells [4]; series of compound 6d)	Time after which most DNA lesions have been eliminated (HeLa cells [4]; Tpc at 1, 10 and 100 μM)	Treatment time with the greatest amount of DNA damage (HeLa cells [4]; Tpc at 1, 10 and 100 μM for 30 min, 1, 2 and 3 h)
OC[C@H]1O[C@@H](n2cnc3c(NC(c4ccccc4)(c4ccccc4)c4ccccc4)ncnc32)[C@H](O)[C@@H]1O [compound 5b]	1.7 Times	107 ± 9%	59.6 ± 0.6 µM	practically did not lead to a decrease in Tdp1 activity	> 50 µM	99 ± 8%				
CC[C@@]1(O)C(=O)OCc2c1cc1n(c2=O)Cc2cc3c(CN(C)C)c(O)ccc3nc2-1 [Tpc, topotecan]							35±5%	39±1%	3 h	30 min
Nc1ncnc2c1ncn2[C@H]1C[C@H](O)[C@@H](CO)O1 [compound 4, reference compound]		79 ± 15%			> 50 µM	84 ± 12%				
Nc1ncnc2c1ncn2[C@@H]1O[C@H](CO)[C@@H](O)[C@H]1O [compound 3, reference compound]		95 ± 9%			> 50 µM	94 ± 9%				
O=C(OC[C@H]1O[C@@H](n2cnc3c(Cl)ncnc32)[C@H](OC(=O)c2ccccc2)[C@@H]1OC(=O)c1ccccc1)c1ccccc1 [compound 6b, 6-Chloro-2′,3′,5′-tri-O-benzoyl-β-D-ribofuranosylpurine riboside]	1.9 Times	75 ± 16%	56 ± 26 µM		2 ± 0.6 µM	86 ± 8%				
OC[C@H]1O[C@@H](n2cnc3c(NCc4ccc(-c5ccccc5)cc4)ncnc32)[C@H](O)[C@@H]1O [5a]		101 ± 24%	> 100 µM	practically did not lead to a decrease in Tdp1 activity; also recorded: did not inhibit Tdp1	> 50 µM	112 ± 11%				
O=C(OC[C@H]1O[C@@H](n2cnc3c(O)ncnc32)[C@H](OC(=O)c2ccccc2)[C@@H]1OC(=O)c1ccccc1)c1ccccc1 [6a, 2′,3′,5′-Tri-O-benzoylinosine]	1.8 Times	96 ± 30%	58 ± 5 µM		7 ± 1 µM	87 ± 10%				
OC[C@H]1O[C@@H](n2cnc3c(NCc4c5ccccc5cc5ccccc45)ncnc32)[C@H](O)[C@@H]1O [5c]	2.2 Times	104 ± 16%	58 ± 2 µM		22 ± 3 µM	92 ± 14%				
Nc1nc2c(ncn2[C@@H]2O[C@H](CO)[C@@H](O)[C@H]2O)c(=O)[nH]1 [compound 1, reference compound]		91 ± 5%			> 50 µM	86 ± 5%				
Nc1nc2c(ncn2[C@H]2C[C@H](O)[C@@H](CO)O2)c(=O)[nH]1 [compound 2, reference compound]		87 ± 18%			> 50 µM	102 ± 11%				
OC[C@H]1O[C@@H](n2cnc3c(NCc4cc5ccc6cccc7ccc(c4)c5c67)ncnc32)[C@H](O)[C@@H]1O [5d]		100 ± 15%	56 ± 10 µM	practically did not lead to a decrease in Tdp1 activity; also recorded: did not inhibit Tdp1	> 50 µM	88 ± 21%				
